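Grown in 96-well plates, cells were treated for 48 hours with each compound at five concentrations. Insufficient inhibition: endpoint recorded as highest concentration tested. GI50 = concentration required for 50% inhibition of growth.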 Calls of active or inactive are those of the source. Cut-off read from the data, not from the text of the source: active = GI50 up to about 1.1 µM and inactive = higher.
How the values were obtained:
Assay in all cases: growth of human tumour cells (NCI), 48 h
[1] = tested on: 786-0
[2] = tested on: A498
[3] = tested on: A549
[4] = tested on: ACHN
[5] = tested on: BT-549
[6] = tested on: CAKI-1
[7] = tested on: CCRF-CEM
[8] = tested on: COLO 205
[9] = tested on: DU-145
[10] = tested on: EKVX
[11] = tested on: HCC 2998
[12] = tested on: HCT-116
[13] = tested on: HCT-15
[14] = tested on: HL-60
[15] = tested on: HOP-62
[16] = tested on: HOP-92
[17] = tested on: HT-29
[18] = tested on: Hs-578T
[19] = tested on: IGROV-1
[20] = tested on: K562
[21] = tested on: LOX IMVI
[22] = tested on: M14
[23] = tested on: MCF7
[24] = tested on: MDA-MB-231
[25] = tested on: MDA-MB-435
[26] = tested on: MDA-N
[27] = tested on: Malme-3M
[28] = tested on: NCI-H226
[29] = tested on: NCI-H23
[30] = tested on: NCI-H460
[31] = tested on: NCI-H522
[32] = tested on: NCI/ADR-RES
[33] = tested on: OVCAR-3
[34] = tested on: OVCAR-4
[35] = tested on: OVCAR-5
[36] = tested on: OVCAR-8
[37] = tested on: PC-3
[38] = tested on: RPMI-8226
[39] = tested on: RXF 393
[40] = tested on: SF-268
[41] = tested on: SF-295
[42] = tested on: SF-539
[43] = tested on: SK-MEL-28
[44] = tested on: SK-MEL-2
[45] = tested on: SK-MEL-5
[46] = tested on: SN12C
[47] = tested on: SNB-19
[48] = tested on: SNB-75
[49] = tested on: SR
[50] = tested on: SW-620
[51] = tested on: T47D
[52] = tested on: TK-10
[53] = tested on: U-251
[54] = tested on: UACC-257
[55] = tested on: UACC-62
[56] = tested on: KM12
[57] = tested on: MOLT-4
[58] = tested on: SK-OV-3
[59] = tested on: UO-31

## Cc1cc(=O)oc2cc(OS(C)(=O)=O)ccc12
[1]
  GI50: > 100 µM (inactive)
[2]
  GI50: > 100 µM (inactive)
[3]
  GI50: > 100 µM (inactive)
[4]
  GI50: > 100 µM (inactive)
[5]
  GI50: > 100 µM (inactive)
[6]
  GI50: > 100 µM (inactive)
[7]
  GI50: > 100 µM (inactive)
[8]
  GI50: > 100 µM (inactive)
[9]
  GI50: > 100 µM (inactive)
[10]
  GI50: > 100 µM (inactive)
[11]
  GI50: > 100 µM (inactive)
[12]
  GI50: > 100 µM (inactive)
[13]
  GI50: > 100 µM
[14]
  GI50: > 100 µM (inactive)
[15]
  GI50: > 100 µM (inactive)
[16]
  GI50: > 100 µM (inactive)
[17]
  GI50: > 100 µM (inactive)
[18]
  GI50: > 100 µM (inactive)
[19]
  GI50: > 100 µM (inactive)
[20]
  GI50: > 100 µM (inactive)
[21]
  GI50: > 100 µM (inactive)
[22]
  GI50: > 100 µM (inactive)
[23]
  GI50: > 100 µM (inactive)
[24]
  GI50: > 100 µM (inactive)
[25]
  GI50: > 100 µM (inactive)
[26]
  GI50: > 100 µM (inactive)
[27]
  GI50: > 100 µM (inactive)
[28]
  GI50: > 100 µM (inactive)
[29]
  GI50: > 100 µM (inactive)
[30]
  GI50: > 100 µM (inactive)
[31]
  GI50: > 100 µM (inactive)
[32]
  GI50: > 100 µM (inactive)
[33]
  GI50: > 100 µM (inactive)
[34]
  GI50: > 100 µM (inactive)
[35]
  GI50: > 100 µM (inactive)
[36]
  GI50: > 100 µM (inactive)
[37]
  GI50: > 100 µM (inactive)
[38]
  GI50: > 100 µM (inactive)
[39]
  GI50: > 100 µM (inactive)
[40]
  GI50: > 100 µM (inactive)
[41]
  GI50: > 100 µM (inactive)
[42]
  GI50: > 100 µM (inactive)
[43]
  GI50: > 100 µM (inactive)
[44]
  GI50: > 100 µM (inactive)
[45]
  GI50: > 100 µM (inactive)
[46]
  GI50: > 100 µM (inactive)
[47]
  GI50: > 100 µM (inactive)
[48]
  GI50: > 100 µM (inactive)
[49]
  GI50: > 100 µM (inactive)
[50]
  GI50: > 100 µM (inactive)
[51]
  GI50: > 100 µM (inactive)
[52]
  GI50: > 100 µM (inactive)
[53]
  GI50: > 100 µM (inactive)
[54]
  GI50: > 100 µM (inactive)
[55]
  GI50: > 100 µM (inactive)

## CNC(=O)C(C)NC(=O)C(Cc1ccccc1)NC(=O)c1ccccc1 (stereo unspecified)
[1]
  GI50: > 100 µM (inactive)
[2]
  GI50: > 100 µM (inactive)
[3]
  GI50: > 100 µM (inactive)
[4]
  GI50: > 100 µM (inactive)
[5]
  GI50: > 100 µM (inactive)
[6]
  GI50: > 100 µM (inactive)
[7]
  GI50: > 100 µM (inactive)
[8]
  GI50: > 100 µM (inactive)
[9]
  GI50: > 100 µM (inactive)
[10]
  GI50: > 100 µM (inactive)
[11]
  GI50: > 100 µM (inactive)
[12]
  GI50: > 100 µM (inactive)
[13]
  GI50: > 100 µM
[14]
  GI50: > 100 µM (inactive)
[15]
  GI50: > 100 µM (inactive)
[16]
  GI50: > 100 µM (inactive)
[17]
  GI50: > 100 µM (inactive)
[18]
  GI50: > 100 µM (inactive)
[19]
  GI50: > 100 µM (inactive)
[20]
  GI50: > 100 µM (inactive)
[56]
  GI50: > 100 µM (inactive)
[21]
  GI50: > 100 µM (inactive)
[22]
  GI50: > 100 µM (inactive)
[23]
  GI50: > 100 µM (inactive)
[24]
  GI50: > 100 µM (inactive)
[25]
  GI50: > 100 µM (inactive)
[26]
  GI50: > 100 µM (inactive)
[57]
  GI50: > 100 µM (inactive)
[27]
  GI50: > 100 µM (inactive)
[28]
  GI50: > 100 µM (inactive)
[29]
  GI50: > 100 µM (inactive)
[30]
  GI50: > 100 µM (inactive)
[31]
  GI50: > 100 µM (inactive)
[32]
  GI50: > 100 µM (inactive)
[33]
  GI50: > 100 µM (inactive)
[34]
  GI50: > 100 µM (inactive)
[35]
  GI50: > 100 µM (inactive)
[36]
  GI50: > 100 µM (inactive)
[37]
  GI50: > 100 µM (inactive)
[38]
  GI50: > 100 µM (inactive)
[39]
  GI50: > 100 µM (inactive)
[40]
  GI50: > 100 µM (inactive)
[41]
  GI50: > 100 µM (inactive)
[42]
  GI50: > 100 µM (inactive)
[43]
  GI50: > 100 µM (inactive)
[44]
  GI50: > 100 µM (inactive)
[45]
  GI50: > 100 µM (inactive)
[58]
  GI50: > 100 µM (inactive)
[46]
  GI50: > 100 µM (inactive)
[47]
  GI50: > 100 µM (inactive)
[48]
  GI50: > 100 µM (inactive)
[49]
  GI50: > 100 µM (inactive)
[50]
  GI50: > 100 µM (inactive)
[51]
  GI50: > 100 µM (inactive)
[52]
  GI50: > 100 µM (inactive)
[53]
  GI50: > 100 µM (inactive)
[54]
  GI50: > 100 µM (inactive)
[55]
  GI50: > 100 µM (inactive)
[59]
  GI50: > 100 µM (inactive)

## CCOc1ccc2c(C)cc(=O)oc2c1
[1]
  GI50: > 100 µM (inactive)
[2]
  GI50: > 100 µM (inactive)
[3]
  GI50: > 100 µM (inactive)
[4]
  GI50: > 100 µM (inactive)
[5]
  GI50: > 100 µM (inactive)
[6]
  GI50: > 100 µM (inactive)
[7]
  GI50: > 100 µM (inactive)
[8]
  GI50: > 100 µM (inactive)
[9]
  GI50: > 100 µM (inactive)
[10]
  GI50: > 100 µM (inactive)
[11]
  GI50: > 100 µM (inactive)
[12]
  GI50: > 100 µM (inactive)
[13]
  GI50: > 100 µM
[14]
  GI50: > 100 µM (inactive)
[15]
  GI50: > 100 µM (inactive)
[16]
  GI50: > 100 µM (inactive)
[17]
  GI50: > 100 µM (inactive)
[18]
  GI50: > 100 µM (inactive)
[19]
  GI50: > 100 µM (inactive)
[20]
  GI50: > 100 µM (inactive)
[56]
  GI50: > 100 µM (inactive)
[21]
  GI50: > 100 µM (inactive)
[22]
  GI50: > 100 µM (inactive)
[23]
  GI50: > 100 µM (inactive)
[24]
  GI50: > 100 µM (inactive)
[25]
  GI50: > 100 µM (inactive)
[26]
  GI50: > 100 µM (inactive)
[57]
  GI50: > 100 µM (inactive)
[27]
  GI50: > 100 µM (inactive)
[28]
  GI50: > 100 µM (inactive)
[29]
  GI50: > 100 µM (inactive)
[30]
  GI50: > 100 µM (inactive)
[31]
  GI50: > 100 µM (inactive)
[32]
  GI50: > 100 µM (inactive)
[33]
  GI50: > 100 µM (inactive)
[34]
  GI50: > 100 µM (inactive)
[35]
  GI50: > 100 µM (inactive)
[36]
  GI50: > 100 µM (inactive)
[37]
  GI50: > 100 µM (inactive)
[38]
  GI50: > 100 µM (inactive)
[39]
  GI50: > 100 µM (inactive)
[40]
  GI50: > 100 µM (inactive)
[41]
  GI50: > 100 µM (inactive)
[42]
  GI50: > 100 µM (inactive)
[43]
  GI50: > 100 µM (inactive)
[44]
  GI50: > 100 µM (inactive)
[45]
  GI50: > 100 µM (inactive)
[46]
  GI50: > 100 µM (inactive)
[47]
  GI50: > 100 µM (inactive)
[48]
  GI50: > 100 µM (inactive)
[49]
  GI50: > 100 µM (inactive)
[50]
  GI50: > 100 µM (inactive)
[51]
  GI50: > 100 µM (inactive)
[53]
  GI50: > 100 µM (inactive)
[54]
  GI50: > 100 µM (inactive)
[55]
  GI50: > 100 µM (inactive)
[59]
  GI50: > 100 µM (inactive)

Source: ChEMBL document CHEMBL1201862, “PubChem BioAssay data set” (2004)
